In one series the test system is forced-swimming mice. Put plainly: In vivo pharmacodynamic test in the forced swimming model in mice. The note with it: ICR mice; for Mean (immobility, %): 100*floating time/240 s; for Immobility time during the latter four minutes compared with that of the model group: forced swimming. The method, then:
The antidepressant effect of the compound was evaluated by the forced swimming model in mice.
Male ICR mice (25-35 g) were adapted in the test environment for 3 days before the forced swimming test.
According to the test design, the mice were randomly grouped on the day before the test according to body weight, with 12 mice in each group. Before the test, the compounds of each example were administered intragastrically according to the Tmax thereof in the brain in mice pharmacokinetic test as follows: • 1) Model group (0.5% CMC-Na-1% Tween 80 solution, p.o., 10 mL/kg); • 2) Compounds of Example 2, Example 3, Example 5, Example 6, Example 9, Examples 59-63, Examples 71-73, Example 103, Example 135, Example 137, Example 145 and Example 146 (10 mg/kg, p.o., 10 mL/kg); Example 13 and Example 74 (5 mg/kg, p.o., 5 mL/kg).
When being administered, the compounds of each example were suspended in 0.5% CMC-Na+1% Tween 80 solution to the desired concentration.
0.5-1 hour after administration, ICR mice were placed in a forced swimming device (transparent glass drum (water depth 18 cm, water temperature 25-26° C.), one mouse per tank) and forced to swim for 6 minutes. The forced swimming device recorded the floating time of the ICR mice during the entire 6 minutes, and the data of the latter four minutes were used for data analysis. The mice were taken out immediately after the swimming test, wiped dry and put back in their original cages.
Note: The criterion for determining the immobility time is that the mouse stops struggling in water and floats, and there are only slight limb movements to keep the head floating on the water.
3.4 Data Analysis Floating time percentage=100*floating time/240 s.

Series [1] can be described thus: Pharmacokinetic assay in Balb/c mice (plasma and brain tissue). The note with it: mouse, po, 5 mg/kg p.o., male Balb/c mice; for AUC(0-t): read-out: Area under curve AUC0-t; for AUC(0-inf): read-out: Area under curve AUC0-∞; for half-life: read-out: Half-life t1/2 (converted); for MRT: read-out: Mean residence time MRT; for Tmax: read-out: Peak time tmax; for Cmax: read-out: Plasma concentration Cmax. The format is in vivo. A digest of the protocol:
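Compound levels in plasma and brain were measured by LC/MS/MS with an internal standard after protein precipitation with acetonitrile. Samples came from overnight-fasted male Balb/c mice given 5 mg/kg p.o., with cardiac blood drawn at 0–24 h. Pharmacokinetic parameters were then calculated.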

For series [2], the system named is PTZ-induced epilepsy model in CD-1 mice. Kind of series: In vivo pharmacodynamic test in the PTZ-induced epilepsy model in mice. The note with it: dose 3 mpk p.o., PTZ 120 mg/kg s.c., 30 min observation. The method, then: The PTZ-induced epilepsy model in CD-1 mice was established, and the antiepileptic effect of the compounds of Example 3, Example 60, Example 61 and Example 74 was evaluated using this model.
50 male CD-1 mice were purchased from Beijing Vital River Laboratory Animal Technology Co. Ltd. The test animals were adapted at the animal room in the third building of Shanghai ChemPartner Co., Ltd for 7 days before the test. The average body weight of the animals on the test day was 32.2±0.2 grams. Feeding environment: 5 animals/cage, room temperature 23±2° C., 12/12 hours of light and dark cycle, free acess to food and water.
4.2.1 Test Equipments • 1 ml sterile disposable syringe with needle (purchased from Zhejiang Kangdelai Medical Devices Co., Ltd.) • Pipette: Eppendorf Research Plus (100-1000 L) • Vortex mixer: Kylin-Bell Vortex 5 • Ultrasonic instrument: JL-360 ultrasonic cleaner • Balance: METTLER TOLEDO™ XS204 precision balance (note: METTLER TOLEDO™ is a kind of balance used in labs and industry) • Balance: METTLER TOLEDO™ XS6002S electronic balance (note: METTLER TOLEDO™ is a kind of balance used in labs and industry) • Plexiglass box: 25 cm length*15 cm width*15 cm height with one opaque side wall, custom made by Suzhou Fengshi Laboratory Animal Equipment Co., Ltd • 3-channel timer: Oregon/Model NO.WB-388. 4.2.2 Test Animal Grouping • 1) Vehicle/PTZ: 0.5% CMC-Na+1% Tween-80 (10 ml/kg, p.o.), administered 0.5 hr before the PTZ administration; PTZ ([…], s.c.), administered before the test; • 2) 3 mg/kg of the compounds of Examples/PTZ: the compounds of Example 3, Example 60, Example 61 and Example 74 (3 mg/kg, 10 ml/kg, p.o.), administered 0.5 hr before the PTZ administration; PTZ ([…], s.c.), administered before the test. 4.3 Experimental Procedures 4.3.1 Solvent Formulation 1) 0.5% CMC-Na+1% Tween-80 (Administration Volume: 10 mL/Kg):
4.4 Adaptation to the Environment
The mice were randomly grouped, marked and weighed; 10 mice per group. The test compound was administered orally at an administration volume of 10 mL/kg 30-60 minutes before the PTZ administration.
PTZ (120 mg/kg) was administrated subcutaneously before the test observation, and this time point was recorded as the observation start point; after the administration of PTZ, the animal was immediately placed in the observation box and observed for 30 minutes, and the followings were recorded: a) the incubation period of the first clonic seizure, b) the incubation period of the first generalized tonic seizure, c) the number of clonic seizures, d) the number of generalized tonic seizures, e) the time when the animal died.
All measurement data were expressed as Mean±SEM, and analysed with Prism 6.0 statistical software.

Read-outs that look alike come from different tables or passages of the source.

As for `C[C@@]1(O)CC[C@H]2[C@H](CC[C@@H]3[C@@H]2CC[C@@]2(C)[C@H]3[C@H](C3CC3)C[C@@H]2C(=O)Cn2nccn2)C1` [Example 73, 1-((3R,5R,8R,9R,10S,13S,14S,15S,17S)-15-Cyclopropyl-3-hydroxy-3,13-dimethylhexadecahydro-1H-cyclopenta[a]phenanthren-17-yl)-2-(2H-1,2,3-triazol-2-yl)ethan-1-one], the “Mean (immobility, %)” value with forced-swimming mice (dose 10 mpk p.o.) worked out at 29.57%. Further, the “Immobility time during the latter four minutes compared with that of the model group” value in the series on forced-swimming mice was “significantly different”. Besides, in series [1] (brain tissue), the AUC(0-t) was found to be 1100 ng·h/mL, the AUC(0-inf) is 1120 ng·h/mL, the half-life is 1.31 h and the MRT stood at 1.91 h. For the same molecule, in series [1] (brain tissue), the Tmax was 0.5 h and the Cmax is 636 ng/mL. In series [1] (plasma), the AUC(0-t) was found to be 2430 ng·h/mL, the AUC(0-inf) is 2480 ng·h/mL, the half-life is 1.4 h and the mean residence time MRT turned out to be 2.06 h. Besides, in series [1] (plasma), the Tmax worked out at 0.5 h and the Cmax was 1300 ng/mL.
Turning to `Cc1nnn(CC(=O)[C@H]2C[C@@H](C3CC3)[C@H]3[C@@H]4CC[C@@H]5C[C@](C)(O)CC[C@@H]5[C@H]4CC[C@@]32C)n1` [Example 74, 1-((3R,5R,8R,9R,10S,13S,14S,15S,17S)-15-Cyclopropyl-3-hydroxy-3,13-dimethylhexadecahydro-TH-cyclopenta[a]phenanthren-17-yl)-2-(5-methyl-2H-tetrazol-2-yl)ethan-1-one], in series [2], the “Incubation period of the clonic seizure, Mean ± SEM” value is 635.4 ± 149.9 s; the “Incubation period of the generalized tonic seizure, Mean” value stood at 1506.8 ± 149.8 s; the Mortality rate was 30%; the “Number of clonic seizures, Mean” value is 1.8 ± 0.3. In addition, in series [2], the “Number of generalized tonic seizures, Mean” value amounted to 0.3 ± 0.2 and the “Time when the animal died, Mean” value was determined as 1618.1 ± 121.3 s. The “Mean (immobility, %)” value in the series with forced-swimming mice (dose 5 mpk p.o.) amounted to 38.00%. Besides, in series [1] (brain tissue), the AUC(0-t) came to 5850 ng·h/mL, the AUC(0-inf) amounted to 6510 ng·h/mL, the half-life is 2.28 h and the MRT turned out to be 3.82 h. In series [1] (brain tissue), the Tmax stood at 1 h and the Cmax came to 1520 ng/mL. For the same molecule, in series [1] (plasma), the AUC(0-t) stood at 7160 ng·h/mL, the AUC(0-inf) was 8600 ng·h/mL, the half-life was 3.06 h and the MRT amounted to 4.59 h. Further, in series [1] (plasma), the Tmax was 0.5 h and the Cmax was determined as 2140 ng/mL.
Turning to `C[C@@]1(O)CC[C@H]2[C@H](CC[C@@H]3[C@@H]2CC[C@@]2(C)[C@H]3[C@H](C3CC3)C[C@@H]2C(=O)Cn2ccc(C#N)n2)C1` [Example 72, 1-(2-((3R,5R,8R,9R,10S,13S,14S,15S,17S)-15-Cyclopropyl-3-hydroxy-3,13-dimethylhexadecahydro-1H-cyclopenta[a]phenanthren-17-yl)-2-oxoethyl)-1H-pyrazole-3-carbonitrile], the “Mean (immobility, %)” value in the series on forced-swimming mice (dose 10 mpk p.o.) was 35.74%. The “Immobility time during the latter four minutes compared with that of the model group” value with forced-swimming mice was “significantly different”. Further, in series [1] (brain tissue), the AUC(0-t) was determined as 2050 ng·h/mL, the AUC(0-inf) came out at 2240 ng·h/mL, the half-life was 2.12 h and the MRT is 3.17 h. Besides, in series [1] (brain tissue), the time to peak (Tmax) was determined as 0.5 h and the Cmax came out at 724 ng/mL. For the same molecule, in series [1] (plasma), the AUC(0-t) amounted to 2970 ng·h/mL, the AUC(0-inf) was 2970 ng·h/mL, the half-life was 2.79 h and the MRT worked out at 3.71 h. In series [1] (plasma), the Tmax was 0.5 h and the Cmax came to 1150 ng/mL.
In the case of `C[C@@H]1C[C@H](C(=O)Cn2nccn2)[C@@]2(C)CC[C@H]3[C@@H](CC[C@@H]4C[C@](C)(O)CC[C@@H]43)[C@H]12` [Example 61, 1-((3R,5R,8R,9R,10S,13S,14S,15R,17S)-3-Hydroxy-3,13,15-trimethylhexadecahydro-1H-cyclopenta[a]phenanthren-17-yl)-2-(2H-1,2,3-triazol-2-yl)ethan-1-one], in series [2], the “Incubation period of the clonic seizure, Mean ± SEM” value is 841.4 ± 179.8 s; the “Incubation period of the generalized tonic seizure, Mean” value was determined as 1497.4 ± 124.3 s; the Mortality rate amounted to 40%; the “Number of clonic seizures, Mean” value is listed as 1.9 ± 0.4. In series [2], the “Number of generalized tonic seizures, Mean” value turned out to be 0.5 ± 0.2 and the “Time when the animal died, Mean” value was found to be 1573.1 ± 117.9 s. In the series with forced-swimming mice (dose 10 mpk p.o.), the “Mean (immobility, %)” value came to 35.75%. Besides, in the series with forced-swimming mice, the “Immobility time during the latter four minutes compared with that of the model group” value is reported as “significantly different”. In addition, in series [1] (brain tissue), the AUC(0-t) was 657 ng·h/mL, the AUC(0-inf) was found to be 676 ng·h/mL, the half-life was 3.95 h and the MRT came out at 1.41 h. For the same molecule, in series [1] (brain tissue), the Tmax is 0.5 h and the Cmax worked out at 711 ng/mL. Besides, in series [1] (plasma), the AUC(0-t) is 588 ng·h/mL, the AUC(0-inf) came out at 605 ng·h/mL, the half-life is 3.27 h and the MRT was found to be 1.48 h. In series [1] (plasma), the Tmax was determined as 0.5 h and the Cmax worked out at 525 ng/mL.

By MRT is commonly meant a mean duration of stay, worked out from the concentration-time curve. As usually defined, the Tmax is the time at which the peak concentration occurs.

The record behind these values is US12139508B2, “Steroid derivative regulators, method for preparing the same, and uses thereof” (JIANGSU HANSOH PHARMACEUTICAL GROUP CO., LTD., priority 2018, dated 2024).
